test system: 293T cells; assay: GFP expression in 293T cells treated with LNP-SamRNA-GFP (formulation optimization, FACS); type: cell-based; conditions: LNPs with self-amplifying mRNA encoding GFP, FIG. 22
Procedure: (§1) The LNPs containing SamRNA-GFP (or SamRNA-LUC, 100 ng/well) were added into 96-well plate which was pre-seeded with 293T, C2C12 or MC38 cells. After 24 hours incubation at 37° C. and 5% CO2, the luciferase SamRNA transfection efficiency was measured by plate reader (Perkin Elmer Envision 2104). The GFP SamRNA transfection efficiency was measured by flow cytometry (BD FACSymphony™ A5 SE Cell Analyzer).
An orthogonal experimental design was applied to optimize the formulation of synthesized ionizable lipids, DOPE, Chol and DMG-PEG2000 that encapsulated samRNA-GFP. Library A contained 16 formulations with four factors and four levels.
In Library A, the 293T cells were treated in different amounts of LNPs ([…] of SamRNA-GFP). The delivery efficiency of LNPs-SamRNA-GFP of A-6, A-9, A-10, A-13 show more than 60% GFP expression when the 293T cells were transfected with 50, 25 and 12.5 ng of mRNA (FIG. 14). The samRNA-GFP delivery efficiency increased with the molar ratios of Chol and DOPE increase, while increased the molar ratios of P6A2 and DMG-PEG2000 reduced the samRNA-GFP delivery efficiency (FIG. 15).
A second orthogonal experimental design was applied to optimize the formulation of LNPs. In Library B, the 293T cells were treated with 50 or 12.5 ng of samRNA-GFP (FIG. 16).

Row | Compound | delivery efficacies compared with FDA approved ionizable lipid MC3
1 | CCCCCCCCCCCCC(CCCCCCCCCC)CNCCC(=O)OC1CC(OC(=O)CCNCC(CCCCCCCCCC)CCCCCCCCCCCC)CC(OC(=O)CCNCC(CCCCCCCCCC)CCCCCCCCCCCC)C1 (stereo not drawn) [P7] | better delivery efficacies than FDA approved ionizable lipid MC3
2 | CCCCCCCCCCCCCCN(CCCCCCCCCCCCCC)CCC(=O)OC1CC(OC(=O)CCN(CCCCCCCCCCCCCC)CCCCCCCCCCCCCC)CC(OC(=O)CCN(CCCCCCCCCCCCCC)CCCCCCCCCCCCCC)C1 (stereo not drawn) [T7] | better delivery efficacies than FDA approved ionizable lipid MC3

test system: 293T, C2C12 or MC38 cells; assay: SamRNA-GFP transfection efficiency of LNPs by flow cytometry; type: cell-based; conditions: LNP-SamRNA-GFP formulated with the lipid; FIGS. 4-6, 8-10
Procedure: The delivery system used to deliver the GFP-mRNA transfect are LNPs formulated using 12 individual ionizable lipids synthesized by three-component reactions. To generate the LNP encapsulated self-amplifying mRNA, the ionizable lipids of the present disclosure were dissolved in ethanol and directly added into an ethanol solution containing DOPE, cholesterol and DMG-PEG2000 at predetermined molar ratio. Self-amplifying mRNA encoding GFP sequences aqueous solution was mixed and the LNP mixture (100 ng mRNA) was added to a 96-well plate pre-seeded with MC38, C2C12 or 293T cells. The cells were incubated at 5% CO2 and 37° C. overnight. The GFP mRNA transfection efficiency was measured by flow cytometry.
E6, an ionizable lipid of the disclosure, was formulated into LNPs with 1,2-Dioleoyl-sn-glycero-3-phosphoethanolamine (DOPE), cholesterol (Chol), methoxypolyethylene glycol (DMG-PEG2000) with a mole ratio of 50/10/38.5/1.5 (ionizable lipid/DOPE/Chol/DMG-PEG2000) encapsulated self-amplifying mRNA or DNA encoding with reporter genes either green fluorescent protein (samRNA-GFP or DNA-CMV-EGFP) or firefly Luciferase (samRNA-LUC). Formulations containing 100 ng of self-amplifying mRNA were incubated to a well of 96-well plate with 60-70% confluent of HEK293, or C2C12, or MC38 cells (FIGS. 10, 23). The transfection efficiency was determined by flow cytometry for detection of GFP, or plate reader for detection of luciferase. LNP formulated using FDA approved ionizable lipid MC3 was used as a control (FIG. 10).
as §1

Row | Compound | delivery of mRNA-GFP compared with FDA approved ionizable lipid MC3
3 | CCCCCCCCCN(CCCCCCCCC)CCC(=O)N1CN(C(=O)CCN(CCCCCCCCC)CCCCCCCCC)CN(C(=O)CCN(CCCCCCCCC)CCCCCCCCC)C1 [E2, 1,1′,1″-(1,3,5-triazinane-1,3,5-triyl)tris(3-(dinonylamino)propan-1-one)] | more effectively deliver mRNA-GFP
4 | CCCCCCCCN(CCCCCCCC)C(c1ccc(C(c2ccccc2O)N(CCCCCCCC)CCCCCCCC)cc1)c1ccccc1O (stereo not drawn) [TP1A11, 2,2′-(1,4-phenylenebis((dioctylamino)methylene))diphenol] | more effectively deliver mRNA-GFP
5 | CCCCCCCCCCCCCN(CCCCCCCCCCCCC)C(c1ccc(CCCCCCCCCCCC)cc1)c1ccccc1O (stereo not drawn) [TP3F11, 2-((ditridecylamino)(4-dodecylphenyl)methyl)phenol] | more effectively deliver mRNA-GFP
6 | CCCCCCCCCCCCCCN(CCCCCCCCCCCCCC)C(c1ccc(CCCCCCCCCCCC)cc1)c1ccccc1O (stereo not drawn) [TP3G11, 2-((ditetradecylamino)(4-dodecylphenyl)methyl)phenol] | more effectively deliver mRNA-GFP
7 | CCCCCCCCCCCCCCN(CCCCCCCCCCCCCC)C(c1cccs1)c1ccccc1O (stereo not drawn) [TP4G11, 2-((ditetradecylamino)(thiophen-2-yl)methyl)phenol] | more effectively deliver mRNA-GFP

test system: 293T cells; assay: SamRNA-LUC transfection efficiency of LNPs by plate reader (luminescence); type: cell-based; conditions: LNP-SamRNA-Luc formulated with the lipid, incubated overnight, FIG. 11
Procedure: as §1

Row | Compound | bioluminescence signals compared with MC3-LNP-SamRNA-Luc
8 | CCCCCCCCCCCCCC(=O)N(C(CCCCCCCC)CCCCCCCC)C(CC1CCN(C)CC1)C(=O)NC1CCCCCC1 (stereo not drawn) [P38D8, N-(1-(cycloheptylamino)-3-(1-methylpiperidin-4-yl)-1-oxopropan-2-yl)-N-(heptadecan-9-yl)tetradecanamide] | stronger bioluminescence signals than MC3-LNP-SamRNA-Luc
9 | CCCCCCCCCCC(=O)N(CC(CCCCCCCC)CCCCCCCCCC)C(CC1CCN(C)CC1)C(=O)NC1CCCCCC1 (stereo not drawn) [P40B10, N-(1-(cycloheptylamino)-3-(1-methylpiperidin-4-yl)-1-oxopropan-2-yl)-N-(2-octyldodecyl)undecanamide] | stronger bioluminescence signals than MC3-LNP-SamRNA-Luc
10 | CCCCCCCCCCCC(=O)N(CC(CCCCCCCC)CCCCCCCCCC)C(CC1CCN(C)CC1)C(=O)NC1CCCCCC1 (stereo not drawn) [P40C10, N-(1-(cycloheptylamino)-3-(1-methylpiperidin-4-yl)-1-oxopropan-2-yl)-N-(2-octyldodecyl)dodecanamide] | stronger bioluminescence signals than MC3-LNP-SamRNA-Luc
11 | CCCCCCCCCCCC(=O)N(C(CCCCCCCCCCC)CCCCCCCCCCC)C(CC1CCN(C)CC1)C(=O)NC1CCCCCC1 (stereo not drawn) [P40C11, N-(1-(cycloheptylamino)-3-(1-methylpiperidin-4-yl)-1-oxopropan-2-yl)-N-(tricosan-12-yl)dodecanamide] | stronger bioluminescence signals than MC3-LNP-SamRNA-Luc
12 | CCCCCCCCCCCCCCC(=O)N(C(CCCCCCC)CCCCCCC)C(CC1CCN(C)CC1)C(=O)NC1CCCCCC1 (stereo not drawn) [P40D7, N-(1-(cycloheptylamino)-3-(1-methylpiperidin-4-yl)-1-oxopropan-2-yl)-N-(pentadecan-8-yl)pentadecanamide] | stronger bioluminescence signals than MC3-LNP-SamRNA-Luc
13 | CCCCCCCCCCCCC(=O)N(CC(CCCCCCCCCC)CCCCCCCCCCCC)C(CC1CCN(C)CC1)C(=O)NC(C)(C)C (stereo not drawn) [P51C12, N-(1-(tert-butylamino)-3-(1-methylpiperidin-4-yl)-1-oxopropan-2-yl)-N-(2-decyltetradecyl)tridecanamide] | stronger bioluminescence signals than MC3-LNP-SamRNA-Luc
14 | CCCCCCCCCCCC(CCCCCCCCCCC)N(C(=O)CCCCCCCCC)C(C(=O)NC(C)(C)C)C1CCN(CC)CC1 (stereo not drawn) [P53A5, N-(2-(tert-butylamino)-1-(1-ethylpiperidin-4-yl)-2-oxoethyl)-N-(tricosan-12-yl)decanamide] | stronger bioluminescence signals than MC3-LNP-SamRNA-Luc
15 | CCCCCCCCCCCCC(CCCCCCCCCC)CN(C(=O)CCCCCCCCC)C(C(=O)NC(C)(C)C)C1CCN(CC)CC1 (stereo not drawn) [P53A6, N-(2-(tert-butylamino)-1-(1-ethylpiperidin-4-yl)-2-oxoethyl)-N-(2-decyltetradecyl)decanamide] | stronger bioluminescence signals than MC3-LNP-SamRNA-Luc
16 | CCCCCCCCCCCCC(CCCCCCCCCC)CN(C(=O)CCCCCCCCCC)C(C(=O)NC12CC3CC(CC(C3)C1)C2)C1CCN(CC)CC1 (stereo not drawn) [P54B6, N-(2-(((1s,3s)-adamantan-1-yl)amino)-1-(1-ethylpiperidin-4-yl)-2-oxoethyl)-N-(2-decyltetradecyl)undecanamide] | stronger bioluminescence signals than MC3-LNP-SamRNA-Luc
17 | CCCCCCCCCCCCCCCC(=O)N(C(CCCCCCC)CCCCCCC)C(C(=O)NC12CC3CC(CC(C3)C1)C2)C1CCN(CC)CC1 (stereo not drawn) [P56A1, N-(2-(((1s,3s)-adamantan-1-yl)amino)-1-(1-ethylpiperidin-4-yl)-2-oxoethyl)-N-(pentadecan-8-yl)palmitamide] | stronger bioluminescence signals than MC3-LNP-SamRNA-Luc
18 | CCCCCCCCCCCCCCCCC(=O)N(C(CCCCCCC)CCCCCCC)C(C(=O)NC12CC3CC(CC(C3)C1)C2)C1CCN(CC)CC1 (stereo not drawn) [P56B1, N-(2-(((1s,3s)-adamantan-1-yl)amino)-1-(1-ethylpiperidin-4-yl)-2-oxoethyl)-N-(pentadecan-8-yl)heptadecanamide] | stronger bioluminescence signals than MC3-LNP-SamRNA-Luc
